The target in assay [1] is Dual specificity protein kinase CLK4 (Homo sapiens) (UniProt Q9HAZ1). Put plainly: Inhibition of human recombinant CLK4 at 40 nM related to control ULK1.
The target in assay [2] is Cyclin-dependent kinase 5 (Homo sapiens) (UniProt Q00535). Put plainly: Inhibition of human recombinant CDK5 at 500 nM in presence of ATP by radiometric assay relative to control.
Assay [3] addresses T1, Serine/threonine-protein kinase DCLK2 (Homo sapiens) (UniProt Q8N568).
T1 sequence (whole entry): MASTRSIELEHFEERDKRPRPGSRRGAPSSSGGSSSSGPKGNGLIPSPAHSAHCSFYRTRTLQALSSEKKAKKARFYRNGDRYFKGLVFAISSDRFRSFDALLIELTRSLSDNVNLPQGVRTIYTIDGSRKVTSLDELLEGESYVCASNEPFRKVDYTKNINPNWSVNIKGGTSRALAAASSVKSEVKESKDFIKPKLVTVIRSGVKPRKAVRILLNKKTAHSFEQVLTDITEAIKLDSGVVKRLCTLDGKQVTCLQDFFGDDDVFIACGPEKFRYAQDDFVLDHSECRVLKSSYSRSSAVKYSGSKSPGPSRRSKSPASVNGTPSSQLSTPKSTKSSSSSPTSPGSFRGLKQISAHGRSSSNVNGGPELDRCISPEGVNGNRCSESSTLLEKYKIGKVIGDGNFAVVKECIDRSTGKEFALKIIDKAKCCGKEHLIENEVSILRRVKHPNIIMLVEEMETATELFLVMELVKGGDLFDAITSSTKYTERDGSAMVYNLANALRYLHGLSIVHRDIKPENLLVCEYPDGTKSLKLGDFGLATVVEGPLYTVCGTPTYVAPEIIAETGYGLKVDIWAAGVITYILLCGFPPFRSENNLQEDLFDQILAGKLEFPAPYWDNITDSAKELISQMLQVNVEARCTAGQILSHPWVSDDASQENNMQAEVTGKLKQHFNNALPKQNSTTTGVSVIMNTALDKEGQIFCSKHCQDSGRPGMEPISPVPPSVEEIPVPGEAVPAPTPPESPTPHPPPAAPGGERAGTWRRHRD
Put plainly: Inhibition of human recombinant DCAMKL2 at 500 nM in presence of ATP by radiometric assay relative to control.

The target of assay [4] is T2, Serine/threonine-protein kinase DCLK3 (Homo sapiens) (UniProt Q9C098).
T2 sequence (whole entry): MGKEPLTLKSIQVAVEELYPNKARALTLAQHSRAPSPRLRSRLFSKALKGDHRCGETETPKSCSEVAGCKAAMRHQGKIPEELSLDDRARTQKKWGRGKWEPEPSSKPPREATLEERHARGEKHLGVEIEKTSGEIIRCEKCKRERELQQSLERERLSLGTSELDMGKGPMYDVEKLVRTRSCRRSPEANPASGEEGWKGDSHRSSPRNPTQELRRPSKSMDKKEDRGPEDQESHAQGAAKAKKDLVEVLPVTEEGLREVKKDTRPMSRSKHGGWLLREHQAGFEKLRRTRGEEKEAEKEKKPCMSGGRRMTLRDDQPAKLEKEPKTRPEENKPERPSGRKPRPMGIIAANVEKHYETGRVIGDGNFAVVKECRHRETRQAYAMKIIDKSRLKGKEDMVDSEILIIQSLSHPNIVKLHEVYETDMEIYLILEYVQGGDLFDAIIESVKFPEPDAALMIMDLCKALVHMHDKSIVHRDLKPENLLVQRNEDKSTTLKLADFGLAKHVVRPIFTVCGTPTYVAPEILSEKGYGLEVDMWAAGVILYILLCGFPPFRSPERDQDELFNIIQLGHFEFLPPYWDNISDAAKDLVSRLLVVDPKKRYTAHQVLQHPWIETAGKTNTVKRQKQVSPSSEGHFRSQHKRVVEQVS
The experiment in a line: Inhibition of human recombinant DCAMKL3 at 500 nM in presence of ATP by radiometric assay relative to control.

In assay [5] the target is T3, Ephrin type-A receptor 1 (Homo sapiens) (UniProt P21709).
T3 sequence (whole entry): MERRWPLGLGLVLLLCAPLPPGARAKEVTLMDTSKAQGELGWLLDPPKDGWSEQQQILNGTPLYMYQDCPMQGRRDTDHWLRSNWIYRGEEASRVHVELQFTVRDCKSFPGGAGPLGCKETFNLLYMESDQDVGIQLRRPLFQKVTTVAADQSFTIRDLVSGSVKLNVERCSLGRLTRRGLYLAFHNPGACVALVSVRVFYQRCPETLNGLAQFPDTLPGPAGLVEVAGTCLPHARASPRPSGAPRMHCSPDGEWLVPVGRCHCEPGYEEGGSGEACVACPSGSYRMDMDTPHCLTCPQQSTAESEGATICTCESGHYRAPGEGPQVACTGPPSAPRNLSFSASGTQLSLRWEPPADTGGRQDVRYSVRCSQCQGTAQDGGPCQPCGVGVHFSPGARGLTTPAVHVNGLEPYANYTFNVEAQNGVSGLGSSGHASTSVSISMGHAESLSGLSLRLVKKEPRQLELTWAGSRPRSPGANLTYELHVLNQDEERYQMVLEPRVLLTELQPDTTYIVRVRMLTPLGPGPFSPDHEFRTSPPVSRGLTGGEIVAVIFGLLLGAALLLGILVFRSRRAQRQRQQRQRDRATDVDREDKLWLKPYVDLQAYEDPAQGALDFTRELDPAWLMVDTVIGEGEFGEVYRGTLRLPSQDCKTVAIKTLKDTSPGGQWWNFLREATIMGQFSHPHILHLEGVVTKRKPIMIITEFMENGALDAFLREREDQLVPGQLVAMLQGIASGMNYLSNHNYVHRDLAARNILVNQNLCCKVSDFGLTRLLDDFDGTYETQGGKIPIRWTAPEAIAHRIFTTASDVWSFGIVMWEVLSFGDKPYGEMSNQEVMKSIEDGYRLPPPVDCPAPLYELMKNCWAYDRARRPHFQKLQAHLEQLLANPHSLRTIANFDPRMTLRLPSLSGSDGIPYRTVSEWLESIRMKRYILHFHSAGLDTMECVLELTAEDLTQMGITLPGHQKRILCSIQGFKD
Put plainly: Inhibition of human recombinant EphA1 at 500 nM related to control ULK1.

Assay [6] addresses Transcription initiation factor TFIID subunit 1-like (Homo sapiens) (UniProt Q8IZX4). Put plainly: Inhibition of human recombinant TAF1L at 15 nM related to control ULK1.

The values below come from ChEMBL document CHEMBL5653631, “A Potent and Selective ULK1 Inhibitor Suppresses Autophagy and Sensitizes Cancer Cells to Nutrient Stress” (iScience, 2018).

Chain of Cyclin-dependent kinase 5 (Homo sapiens) (Q00535 whole entry, looked up): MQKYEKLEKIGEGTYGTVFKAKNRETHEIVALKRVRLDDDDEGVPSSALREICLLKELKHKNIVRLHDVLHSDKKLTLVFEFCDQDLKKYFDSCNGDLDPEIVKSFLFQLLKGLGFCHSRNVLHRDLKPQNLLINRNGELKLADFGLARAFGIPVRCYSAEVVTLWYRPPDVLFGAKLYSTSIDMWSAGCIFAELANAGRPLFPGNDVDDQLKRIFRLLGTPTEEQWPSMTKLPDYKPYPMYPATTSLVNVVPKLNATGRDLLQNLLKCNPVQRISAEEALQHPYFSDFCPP
Chain of Transcription initiation factor TFIID subunit 1-like (Homo sapiens) (Q8IZX4 whole entry): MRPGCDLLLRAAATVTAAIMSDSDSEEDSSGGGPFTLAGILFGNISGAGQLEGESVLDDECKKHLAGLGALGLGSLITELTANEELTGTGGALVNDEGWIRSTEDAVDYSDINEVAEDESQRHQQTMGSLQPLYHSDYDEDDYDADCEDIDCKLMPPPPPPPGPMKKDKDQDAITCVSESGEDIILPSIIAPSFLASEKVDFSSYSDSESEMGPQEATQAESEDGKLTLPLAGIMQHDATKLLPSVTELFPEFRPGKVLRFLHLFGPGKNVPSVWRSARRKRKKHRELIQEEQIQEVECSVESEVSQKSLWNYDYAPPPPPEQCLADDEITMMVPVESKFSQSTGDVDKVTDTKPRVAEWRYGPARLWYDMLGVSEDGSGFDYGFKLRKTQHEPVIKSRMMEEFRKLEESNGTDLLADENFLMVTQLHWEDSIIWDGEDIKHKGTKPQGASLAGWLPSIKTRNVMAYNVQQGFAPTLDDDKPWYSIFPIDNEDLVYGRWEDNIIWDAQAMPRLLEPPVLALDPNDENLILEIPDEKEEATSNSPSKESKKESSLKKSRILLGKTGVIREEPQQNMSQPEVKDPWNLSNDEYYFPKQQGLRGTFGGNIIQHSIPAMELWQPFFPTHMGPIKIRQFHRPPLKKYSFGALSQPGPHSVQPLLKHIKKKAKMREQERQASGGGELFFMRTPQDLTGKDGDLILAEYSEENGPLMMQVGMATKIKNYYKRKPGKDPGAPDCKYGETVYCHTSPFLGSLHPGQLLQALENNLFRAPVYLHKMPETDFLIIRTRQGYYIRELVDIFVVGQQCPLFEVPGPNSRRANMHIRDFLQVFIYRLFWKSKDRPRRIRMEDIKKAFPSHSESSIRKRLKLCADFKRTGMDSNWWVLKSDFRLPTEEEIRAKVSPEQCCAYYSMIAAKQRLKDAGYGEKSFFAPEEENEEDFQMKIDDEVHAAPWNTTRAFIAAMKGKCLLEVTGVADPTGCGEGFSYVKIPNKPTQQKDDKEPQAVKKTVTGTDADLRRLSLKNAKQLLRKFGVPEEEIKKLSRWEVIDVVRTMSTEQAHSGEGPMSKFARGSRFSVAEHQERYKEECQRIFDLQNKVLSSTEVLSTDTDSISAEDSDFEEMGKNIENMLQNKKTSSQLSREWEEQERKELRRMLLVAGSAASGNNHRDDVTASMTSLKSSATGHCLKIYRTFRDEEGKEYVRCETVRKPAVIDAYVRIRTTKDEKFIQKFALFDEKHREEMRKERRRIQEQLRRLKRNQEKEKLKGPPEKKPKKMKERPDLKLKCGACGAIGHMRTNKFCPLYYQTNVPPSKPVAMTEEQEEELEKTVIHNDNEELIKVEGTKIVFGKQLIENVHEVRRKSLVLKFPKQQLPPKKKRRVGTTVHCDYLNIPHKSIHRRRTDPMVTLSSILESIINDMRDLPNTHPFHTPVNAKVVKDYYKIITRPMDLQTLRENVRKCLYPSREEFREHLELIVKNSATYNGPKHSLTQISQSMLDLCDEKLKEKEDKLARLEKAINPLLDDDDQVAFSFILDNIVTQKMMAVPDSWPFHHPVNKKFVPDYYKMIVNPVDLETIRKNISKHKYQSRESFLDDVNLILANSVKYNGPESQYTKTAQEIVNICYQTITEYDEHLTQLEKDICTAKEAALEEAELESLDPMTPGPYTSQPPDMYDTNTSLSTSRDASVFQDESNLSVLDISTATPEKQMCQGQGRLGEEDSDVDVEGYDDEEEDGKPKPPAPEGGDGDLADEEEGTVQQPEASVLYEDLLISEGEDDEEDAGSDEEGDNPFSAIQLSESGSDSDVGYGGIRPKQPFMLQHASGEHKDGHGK
Chain of Dual specificity protein kinase CLK4 (Homo sapiens) (Q9HAZ1 whole entry, looked up): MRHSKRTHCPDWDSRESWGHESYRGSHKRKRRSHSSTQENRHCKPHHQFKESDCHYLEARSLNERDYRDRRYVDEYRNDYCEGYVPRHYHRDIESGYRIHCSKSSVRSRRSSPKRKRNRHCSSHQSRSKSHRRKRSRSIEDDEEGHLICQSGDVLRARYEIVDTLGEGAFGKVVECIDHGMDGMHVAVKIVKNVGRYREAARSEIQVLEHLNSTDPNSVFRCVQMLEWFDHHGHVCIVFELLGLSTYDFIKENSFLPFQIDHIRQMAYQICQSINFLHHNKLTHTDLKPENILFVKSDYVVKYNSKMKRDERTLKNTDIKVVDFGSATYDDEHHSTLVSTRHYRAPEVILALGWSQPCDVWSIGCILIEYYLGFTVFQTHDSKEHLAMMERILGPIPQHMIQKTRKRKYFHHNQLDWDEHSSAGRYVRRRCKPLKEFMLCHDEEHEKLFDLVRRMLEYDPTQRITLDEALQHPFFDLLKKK

In the case of `O=C(N[C@@H](C1CC1)C(F)(F)F)c1cc(-c2cnn3cc(-c4ccc(F)cc4)cnc23)cs1`, the fold change (FC) in assay [1] was 0.71.

As to `CNC(=O)c1ccccc1Oc1nc(Nc2cc(OC)c(OC)c(OC)c2)ncc1Br`, the inhibition in assay [2] is 57%; in assay [3] it was 0%; in assay [4], 0%. Also, the fold change (FC) in assay [5] amounted to 0.18.

On to `CC(C)[C@H](NC(=O)c1cc(-c2cnn3cc(-c4ccc(OCCN5CCCCC5)cc4)cnc23)cs1)C(F)(F)F`, for which the fold change (FC) in assay [6] came to 0.49.
